Source: patent US9913846B2, “Combination of a PI3 kinase inhibitor with pacitaxel for use in the treatment or prevention of a cancer of the head and neck” (NOVARTIS AG, priority 2013, dated 2018)

Tests used:
UPCISCC153 = experiment: Cancer cell growth inhibition, cell counting after 5 days; format: cell-based; details: 120 h
Experimental: (§1) Data was compared with untreated controls. […] Experiments were carried out in duplicate. The table below details the results.

UMSCC11A = experiment: as above; format: cell-based; details: 120 h
Experimental: as §1

UMSCC5 = experiment: as above; format: cell-based; details: UM-SCC-5, 120 h
Experimental: as §1

UMSCC1 = experiment: as above; format: cell-based; details: Homo sapiens, 120 h
Experimental: as §1

[1] = tested on: head and neck cancer cell lines; experiment: Sensitivity of head and neck cancer cell line panels to Compound A (FIG. 1); format: cell-based; details: majority of the cell lines of two independently tested panels
Text: (§2) (Red=KRAS mutant=UMSCC-74A. Yellow=PI3KCA mutant=CAL33).

[2] = Concentration delivered to patients; format: in vivo, human; details: patients treated at 100 mg daily; expected
Text: as §2

[3] = tested on: pAKT in FaDu xenograft (Hypopharynx squamous cell carcinoma); experiment: pAKT in tumor tissue of FaDu xenograft (FIG. 2); format: in vivo; details: Compound A at 30 mg daily

Compound | inhibition at 1 µM (UPCISCC153; Compound A 1 μM) [%] | inhibition at 1 µM (UMSCC11A; Compound A 1 μM) [%] | inhibition at 1 µM (UMSCC5; Compound A 1 μM) [%] | inhibition at 1 µM (UMSCC1; Compound A 1 μM) [%] | IC50 [1] [nM] | concentration delivered to patients [2] | pAKT in tumor tissue [3] | inhibition at 0.001 µg/mL (UPCISCC153; paclitaxel 1 ng/ml) [%] | inhibition at 0.001 µg/mL (UMSCC11A; paclitaxel 1 ng/ml) [%] | inhibition at 0.001 µg/mL (UMSCC5; paclitaxel 1 ng/ml) [%] | inhibition at 0.001 µg/mL (UMSCC1; paclitaxel 1 ng/ml) [%]
Nc1cc(C(F)(F)F)c(-c2cc(N3CCOCC3)nc(N3CCOCC3)n2)cn1 [Compound A, 5-(2,6-di-morpholin-4-yl-pyrimidin-4-yl)-4-trifluoromethyl-pyridin-2-ylamine] | 15 | 21.9 | 28 | 21.2 | < 1000 | around 1 μM | inhibition of pAKT |  |  |  | 
CC(=O)O[C@H]1C(=O)[C@@]2(C)[C@H]([C@H](OC(=O)c3ccccc3)[C@]3(O)C[C@H](OC(=O)[C@H](O)[C@@H](NC(=O)c4ccccc4)c4ccccc4)C(C)=C1C3(C)C)[C@]1(OC(C)=O)CO[C@@H]1C[C@@H]2O [Paclitaxel, 5β,20-Epoxy1,2a,4,7β, 10β, 13a-hexahydroxytax-11-en-9-one 4, 10,-diacetate 2-benzoate 13-ester with (2R, 3S)—N-benzoyl-3-phenylisoserine, reference compound] |  |  |  |  |  |  |  | 0 | 3.13 | 7.6 | 4.6
